# From patent publication US7230018B2, “Substituted propane-1,3-diamine derivatives and the pharmaceutical use thereof” (Gruenenthal GmbH, priority 2001, dated 2007)
# Test system: phenylquinone-induced writhing in the mouse
# Test: phenylquinone-induced writhing test in the mouse
# Type: in vivo
# Conditions: male NMRI mice, 10 mg/kg intravenously, phenylquinone intraperitoneally 10 minutes after test substance, writhing counted 5 to 20 minutes after phenylquinone, hydrochloride
# Experimental: Testing of Analgesia in the Writhing Test in the Mouse
# The investigation for analgesic activity was carried out in the phenylquinone-induced writhing in the mouse (modified by I. C. Hendershot and J. Forsaith (1959) J. Pharmacol. Exp. Ther. 125, 237-240). Male NMRI mice weighing 25 to 30 g were employed for this. Groups of 10 animals per substance dose received 0.3 ml/mouse of a 0.02% aqueous solution of phenylquinone (phenylbenzoquinone, Sigma, Deisenhofen; preparation of the solution with the addition of 5% ethanol and storage in a water bath at 45° C.) administered intraperitoneally 10 minutes after intravenous administration of the test substances. The animals were placed individually in observation cages. The number of pain-induced stretching movements (so-called writhing reactions=straightening of the body with stretching of the hind extremities) was counted by means of a push-button counter 5 to 20 minutes after the administration of phenylquinone. Animals which received only physiological saline solution were also run as a control. All the substances were tested in the standard dosage of 10 mg/kg. The percentage inhibition (% inhibition) of the writhing reaction by a substance was calculated according to the following formula: […]
row,Structure (SMILES),% Inhibition of the writhing reaction (dosage in mg/kg intravenously)
1,"CN(C)C(c1cccnc1)C1CCCCC1NC(=O)c1ccccc1.Cl (stereo not drawn) [Example 5, (anti,anti)-N-[2-(dimethylaminopyridin-3-ylmethyl)cyclohexyl]-benzamide hydrochloride]",49 (10) %
2,"CN(C)C(c1cccnc1)C1CCCCC1NC(=O)c1ccccc1F.Cl (stereo not drawn) [Example 2, (syn,syn)-N-[2-(dimethylaminopyridin-3-ylmethyl)cyclohexyl]-2-fluorobenzamide hydrochloride]",67 (10) %
3,"CN(C)C(c1cccnc1)C1CCCCC1NC(=O)c1ccccc1.Cl (stereo not drawn) [Example 1, (syn,syn)-N-[2-(dimethylaminopyridin-3-ylmethyl)cyclohexyl]benzamide hydrochloride]",54 (10) %
4,"Cc1ccccc1C(=O)NC1CCCCC1C(c1cccnc1)N(C)C.Cl (stereo not drawn) [Example 4, (syn,syn)-N-[2-(dimethylaminopyridin-3-ylmethyl)cyclohexyl]-2-methylbenzamide hydrochloride]",34 (10) %
5,"Cc1ccccc1C(=O)NC1CCCCC1C(c1cccnc1)N(C)C.Cl (stereo not drawn) [Example 8, (anti,anti)-N-[2-(dimethylaminopyridin-3-ylmethyl)cyclohexyl]-2-methylbenzamide hydrochloride]",40 (10) %
6,"CC(=O)NC1CCCCC1C(c1cccnc1)N(C)C.Cl (stereo not drawn) [Example 10, (anti,anti)-N-[2-(dimethylaminopyridin-3-ylmethyl)cyclohexyl]acetamide hydrochloride]",59 (10) %
7,"CN(C)C(c1cccnc1)C1CCCCC1NC(=O)c1ccccc1Cl.Cl (stereo not drawn) [Example 3, (syn,syn)-2-chloro-N-[2-(dimethylaminopyridin-3-ylmethyl)cyclohexyl]-benzamide hydrochloride]",85 (10) %
8,"CC(=O)NC1CCCCC1C(c1cccnc1)N(C)C.Cl (stereo not drawn) [Example 9, (syn,syn)-N-[2-(dimethylaminopyridin-3-ylmethyl)cyclohexyl]acetamide hydrochloride]",75 (10) %
9,"CN(C)C(c1cccnc1)C1CCCCC1NC(=O)c1ccccc1F.Cl (stereo not drawn) [Example 6, (anti,anti)-N-[2-(dimethylaminopyridin-3-ylmethyl)cyclohexyl]-2-fluorobenzamide hydrochloride]",62 (10) %
10,"CN(C)C(c1cccnc1)C1CCCCC1NC(=O)c1ccccc1Cl.Cl (stereo not drawn) [Example 7, (anti,anti)-2-chloro-N-[2-(dimethylaminopyridin-3-ylmethyl)cyclohexyl]benzamide hydrochloride]",56 (10) %
